The values that follow come from patent publication US20080161232A1, “C5a Receptor Antagonist” (JERINI AG, priority 2005, published 2008).

Starred links: 1 amine or outer side, 2 acyl side, 3 side chain; linkers in the order of their positions; H or OH if unused. Positions of bridges follow the written chain, without caps; N, C: chain ends. Non-standard residues stand in square brackets, D forms with d. Residues, ends and D or L forms follow the SMILES beside them. ξ: configuration not given here. Phe(4-F) = N[C@@H](Cc1ccc(F)cc1)C(=O)O; Phe(2-F) = N[C@@H](Cc1ccccc1F)C(=O)O; Bta = N[C@@H](Cc1csc2ccccc12)C(=O)O; NEtPhe = CCN[C@@H](Cc1ccccc1)C(=O)O; Hyp = O=C(O)[C@@H]1C[C@@H](O)CN1; d(hLeu) = CC(C)CC[C@@H](N)C(=O)O; hArg = N=C(N)NCCCC[C@H](N)C(=O)O; ξNip = O=C(C1CCCN([*:1])C1)[*:2]; 2Pal = N[C@@H](Cc1ccccn1)C(=O)O; 4Pal = N[C@@H](Cc1ccncc1)C(=O)O; Cha = N[C@@H](CC1CCCCC1)C(=O)O; dCha = N[C@H](CC1CCCCC1)C(=O)O; Nle = CCCC[C@H](N)C(=O)O; Orn = NCCC[C@H](N)C(=O)O; Aze = O=C(O)[C@@H]1CCN1; Dab = NCC[C@H](N)C(=O)O

The target in one assay is T1, human C5aR(CD88) (Homo sapiens, UniProt P21730).
T1 construct: expressed in transfected cells; host or cells: rat basophilic leukemia cells (RBL)
T1 sequence (P21730 1-350): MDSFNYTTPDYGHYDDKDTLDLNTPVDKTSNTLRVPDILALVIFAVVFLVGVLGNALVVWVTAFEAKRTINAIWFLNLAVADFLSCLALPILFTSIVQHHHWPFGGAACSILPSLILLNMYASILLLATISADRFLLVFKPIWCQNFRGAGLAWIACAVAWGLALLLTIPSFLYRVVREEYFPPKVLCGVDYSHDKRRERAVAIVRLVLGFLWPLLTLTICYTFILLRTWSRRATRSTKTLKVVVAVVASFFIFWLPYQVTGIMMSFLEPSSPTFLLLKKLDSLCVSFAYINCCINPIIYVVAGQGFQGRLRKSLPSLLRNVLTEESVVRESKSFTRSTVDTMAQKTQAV
Kind of assay: Determination of the IC50 value in an enzyme release assay (functional assay, antagonistic activity). The format is cell-based. Particulars: antagonistic activity; IC50 group in enzyme release assay, RBL cells expressing human C5aR(CD88); read-out: activity (group).
As for `CCCC[C@H](NC(=O)[C@H](Cc1ccccc1)NC(C)=O)C(=O)N1CCC[C@H]1C(=O)N[C@H](CC1CCCCC1)C(=O)N[C@@H](Cc1csc2ccccc12)C(=O)N[C@@H](Cc1ccccc1)C(N)=O` [Compound 120, Ac-Phe-Nle-Pro-cha-Bta-Phe-NH2] (Ac-F[Nle]P[dCha][Bta]F-NH2), the IC50 was 50 to 200 nM.
Still for that read-out and setting: under `O=C(N[C@@H](Cc1ccccc1)C(=O)N[C@H]1CCCNC(=O)[C@H](Cc2ccccc2)NC(=O)[C@H](Cc2c[nH]c3ccccc23)NC(=O)[C@@H](CC2CCCCC2)NC(=O)[C@@H]2C[C@@H](O)CN2C1=O)C1CCCNC1` (stereo partly drawn) [Compound 332, Fci-[Phe-Orn-Hyp-cha-Trp-Phe]] (ξNip-F[Orn][Hyp][dCha]WF; lactam 2-C) stands 50 to 200 nM; under `CC(=O)N[C@@H](Cc1ccccc1)C(=O)N[C@H]1CCCNC(=O)[C@H](Cc2ccccc2)NC(=O)[C@H](Cc2ccc(F)cc2)NC(=O)[C@@H](CC2CCCCC2)NC(=O)[C@@H]2CCCN2C1=O` [Compound 187, Ac-Phe-[Orn-Pro-cha-Pff-Phe]] (Ac-F[Orn]P[dCha][Phe(4-F)]F; lactam 2-C), 50 to 200 nM.
On to `CC(=O)N[C@@H](Cc1ccccc1)C(=O)N[C@@H](CCCN)C(=O)N1CCC[C@H]1C(=O)N[C@H](CCC(C)C)C(=O)N[C@@H](Cc1csc2ccccc12)C(=O)N[C@@H](CC1CCCCC1)C(N)=O` [Compound 274, Ac-Phe-Orn-Pro-hle-Bta-Cha-NH2] (Ac-F[Orn]P[d(hLeu)][Bta][Cha]-NH2), for which the IC50 was in the range of 50 to 200 nM.
On the same count and under the same terms, under `CCCC[C@@H]1NC(=O)[C@H](Cc2ccc(F)cc2)NC(=O)[C@@H](CCC(C)C)NC(=O)[C@@H]2CCCN2C(=O)[C@@H](NC(=O)[C@H](Cc2ccccc2)NCC)CCCNC1=O` [Compound 319, Eth-Phe-[Orn-Pro-hle-Pff-Nle]] (H-[NEtPhe][Orn]P[d(hLeu)][Phe(4-F)][Nle]; lactam 2-C) stands 50 to 200 nM; under `CC(=O)N[C@@H](Cc1ccccc1)C(=O)N[C@@H](CCN)C(=O)N1CC[C@H]1C(=O)N[C@H](CCC(C)C)C(=O)N[C@@H](Cc1csc2ccccc12)C(=O)N[C@@H](Cc1ccccc1)C(N)=O` [Compound 214, Ac-Phe-Dab-Aze-hle-Bta-Phe-NH2] (Ac-F[Dab][Aze][d(hLeu)][Bta]F-NH2), 20 to 50 nM.
Still for that read-out and setting: under `CC(=O)N[C@@H](Cc1ccccc1)C(=O)N[C@H]1CCCNC(=O)[C@H](CC(C)C)NC(=O)[C@H](Cc2c[nH]c3ccccc23)NC(=O)[C@@H](CC2CCCCC2)NC(=O)[C@@H]2CCCN2C1=O` [Compound 193, Ac-Phe-[Orn-Pro-cha-Trp-Leu]] (Ac-F[Orn]P[dCha]WL; lactam 2-C) stands 50 to 200 nM; under `CC(C)CC[C@H]1NC(=O)[C@@H]2C[C@@H](O)CN2C(=O)[C@@H](NC(=O)[C@@H](N)Cc2ccccc2)CCCNC(=O)[C@H](Cc2ccccc2)NC(=O)[C@H](Cc2c[nH]c3ccccc23)NC1=O` [Compound 371, H-Phe-[Orn-Hyp-hle-Trp-Phe]] (H-F[Orn][Hyp][d(hLeu)]WF; lactam 2-C), 20 to 50 nM.
The same measure, in the same setting: for `CC(=O)N[C@@H](Cc1ccccc1F)C(=O)N[C@@H](CCCN)C(=O)N1CCC[C@H]1C(=O)N[C@H](CC1CCCCC1)C(=O)N[C@@H](Cc1csc2ccccc12)C(=O)N[C@@H](Cc1ccccc1)C(N)=O` [Compound 166, Ac-Off-Orn-Pro-cha-Bta-Phe-NH2] (Ac-[Phe(2-F)][Orn]P[dCha][Bta]F-NH2) the value was 20 to 50 nM; for `CC(=O)N[C@@H](Cc1ccccc1)C(=O)N[C@@H](CCCN)C(=O)N1CCC[C@H]1C(=O)N[C@H](CC1CCCCC1)C(=O)N[C@@H](Cc1csc2ccccc12)C(=O)N[C@@H](Cc1ccccn1)C(N)=O` [Compound 258, Ac-Phe-Orn-Pro-cha-Bta-Opa-NH2] (Ac-F[Orn]P[dCha][Bta][2Pal]-NH2), 50 to 200 nM; for `CC(=O)N[C@@H](Cc1ccccc1)C(=O)N[C@@H](CCCCNC(=N)N)C(=O)N1CC[C@H]1C(=O)N[C@H](CC1CCCCC1)C(=O)N[C@@H](Cc1csc2ccccc12)C(=O)N[C@@H](Cc1ccccc1)C(N)=O` [Compound 229, Ac-Phe-Har-Aze-cha-Bta-Phe-NH2] (Ac-F[hArg][Aze][dCha][Bta]F-NH2), 10 to 20 nM.

The same assay, now with this note: functional assay of example 11; noteworthy = IC50 less than 200 nM.
For “Ac-Phe-[Orn-Hyp(CONHCH2COH(OH)CH2OH)-cha-Trp-Phe]”, the “inhibitory activity (in words)” value is listed as “noteworthy inhibitory activity”.
Same read-out and setting: for `CC(=O)N[C@@H](Cc1ccccc1)C(=O)N[C@H]1CCCNC(=O)[C@H](Cc2ccncc2)NC(=O)[C@H](Cc2c[nH]c3ccccc23)NC(=O)[C@@H](CC2CCCCC2)NC(=O)[C@@H]2CCCN2C1=O` [Ac-Phe-[Orn-Pro-cha-Trp-Ppa]] (Ac-F[Orn]P[dCha]W[4Pal]; lactam 2-C) the value was “noteworthy inhibitory activity”.
